In patent US11590109B2 (priority 2016, dated 2023):

Key:
in vitro [1] = conditions: African green monkey
[2] = test system: RSV (human respiratory syncytial virus); assay: Inhibition of viral replication (CPE) at cellular level, RSV in Vero; conditions: for SI (TC50/IC50): RSV in host cell Vero; for IC50: human respiratory syncytial virus, Vero
[3] = test system: JEV (Japanese encephalitis virus); assay: Inhibition of viral replication (CPE) at cellular level, JEV in Vero; conditions: for SI (TC50/IC50): JEV in host cell Vero; for IC50: Japanese encephalitis virus, Vero
[4] = Determination of TC50 (half toxicity concentration) in RD cells; assay type: cell-based; conditions: human, host cell RD, EV71 table
H1N1 (influenza virus) [5] = assay: microbe, parasite or virus in culture; conditions: Influenza A virus, H1N1, MDCK
H3N2 (influenza virus) [6] = conditions: H3N2 in host cell MDCK
Zika Virus = assay: Inhibition of viral replication (CPE) at cellular level, Zika Virus in Vero; conditions: for SI (TC50/IC50): Zika Virus in host cell Vero; for IC50: Zika virus, Vero
[7] = test system: Dengue Virus 2 (type 2 dengue virus); assay: Inhibition of viral replication (CPE) at cellular level, Dengue Virus 2 in Vero; assay type: cell-based; conditions: Dengue Virus 2 in host cell Vero; for IC50: CPE
Text: Activity Test for Inhibition of Viral Replication at Cellular Level […]
The present inventors tested inhibitory effects of the compound of the present invention on cytopathic effects (CPE) caused by viral infection on mammalian cells.
Half-inhibitory concentration IC50 and half toxic concentration TC50 of the compound against Dengue Virus 2 (type 2 dengue virus) in host cell Vero (African green monkey kidney cell).

in vitro [8] = conditions: dog, TC50
[9] = test system: EV71 (hand-foot-and-mouth virus); assay: microbe, parasite or virus in culture; conditions: Enterovirus A
H7N9 (influenza virus) [10] = assay: microbe, parasite or virus in culture; conditions: Influenza A virus, H7N9, MDCK
H1N1 (influenza virus) [11] = conditions: H1N1 in host cell MDCK
H3N2 (influenza virus) [12] = assay: microbe, parasite or virus in culture; conditions: Influenza A virus, H3N2, MDCK
[13] = test system: EV71 (hand-foot-and-mouth virus); conditions: for SI (TC50/IC50): EV71 in host cell RD
H7N9 (influenza virus) [14] = conditions: H7N9 in host cell MDCK
[15] = TC50, host cell Vero, Dengue Virus 2 table
[16] = TC50, host cell Vero, RSV table
[17] = TC50, host cell Vero, Zika Virus table

SMILES | CC50 (in vitro [1]) | CC50 (in vitro [1]; [15]) | CC50 (in vitro [1]; [16]) | CC50 (in vitro [1]; [17]) | IC50 [2] | SI (TC50/IC50) [3] | IC50 [3] | CC50 [4] | IC50 (H1N1 (influenza virus) [5]) | SI (TC50/IC50) (H3N2 (influenza virus) [6]) | SI (TC50/IC50) (Zika Virus) | IC50 (Zika Virus) | SI (TC50/IC50) [7] | IC50 [7] | IC50 [9] | IC50 (H7N9 (influenza virus) [10]) | SI (TC50/IC50) (H1N1 (influenza virus) [11]) | IC50 (H3N2 (influenza virus) [12]) | SI (TC50/IC50) [13] | SI (TC50/IC50) (H7N9 (influenza virus) [14]) | other results
CCN(/N=C/c1ccccc1C(=O)O)c1nc(-c2ccccc2Cl)cs1 [Compound 2, (E)-4-(2-chlorophenyl)-2-[1-ethyl-2-(2-carboxybenzylidene)hydrazino]thiazole] | 16 µM | 24 µM | 29 µM | 24 µM | 7.69 µM | 45.7 | 350 nM | 1000 nM | 3690 nM | 15 | 53 | 450 nM | 68.6 | 350 nM | 230 nM | 5730 nM | 8 | 1500 nM | 4.3 | 8 | SI (TC50/IC50) [2]: 4; CC50 (in vitro [8]): 23 µM
O=C(O)c1cc(C(F)(F)F)ccc1/C=N/Nc1nc(-c2ccccc2Cl)cs1 [Compound 8-1] | 36 µM | 65 µM | 123 µM | 66 µM | 8.89 µM | 156 | 230 nM | 2000 nM | 890 nM | 456 | 264 | 250 nM | 325 | 200 nM | 190 nM | 860 nM | 138 | 250 nM | 10.5 | 117 | SI (TC50/IC50) [2]: 14; CC50 (in vitro [8]): 114 µM
Cc1ccc(/C=N/N(C)c2nc(-c3ccccc3Cl)cs2)c(C(=O)O)c1 [Compound 9, (E)-4-(2-chlorophenyl)-2-[1-methyl-2-(4-methyl-2-carboxybenzylidene)hydrazino]thiazole] | 11 µM | 18 µM | 35 µM | 15 µM | 2.27 µM | 73.3 | 150 nM | 1000 nM | 270 nM | 137 | 100 | 150 nM | 106 | 170 nM | 120 nM | 530 nM | 240 | 190 nM | 8.3 | 83 | SI (TC50/IC50) [2]: 15
Cc1sc(N(C)/N=C/c2ccccc2C(=O)O)nc1-c1ccccc1 [Compound 12, (E)-5-methyl-4-phenyl-2-[1-methyl-2-(2-carboxybenzylidene)hydrazino]thiazole] |  | 17 µM | 21 µM | 13 µM | 1.79 µM | 100 | 130 nM | 1000 nM | 790 nM | 146 | 56.5 | 230 nM | 65 | 260 nM | 250 nM | 1090 nM | 77 | 350 nM | 4 | 54 | SI (TC50/IC50) [2]: 11.7; CC50 (in vitro [8]): 51 µM
Cc1sc(N/N=C/c2ccccc2C(=O)O)nc1-c1ccccc1 [Compound 12-1] | 43 µM | 23 µM | 39 µM | 33 µM | 6.91 µM | 138.7 | 310 nM | 2000 nM | 910 nM | 246 | 110 | 300 nM | 59 | 390 nM | 390 nM | 2300 nM | 362 | 520 nM | 5 | 108 | SI (TC50/IC50) [2]: 5.6
CN(/N=C/c1ccc(C(F)(F)F)cc1C(=O)O)c1nc(-c2ccccc2Cl)cs1 [Compound 8, (E)-4-(2-chlorophenyl)-2-[1-methyl-2-(4-trifluoromethyl-2-carboxybenzylidene)hydrazino]thiazole] | 17 µM | 19 µM | 31 µM | 19 µM | 5.63 µM | 170 | 100 nM | 1000 nM | 630 nM | 233 | 158 | 120 nM | 211 | 90 nM | 90 nM | 590 nM | 49 | 210 nM | 11 | 66 | SI (TC50/IC50) [2]: 5.5; CC50 (in vitro [8]): 49 µM
O=C(O)c1cc(F)ccc1/C=N/Nc1nc(-c2ccccc2Cl)cs1 [Compound 10-1] | 49 µM | 45 µM | 50 µM | 89 µM | 7.39 µM | 306 | 160 nM | 1000 nM | 390 nM | 313 | 523 | 170 nM | 300 | 150 nM | 180 nM | 490 nM | 615 | 310 nM | 5.6 | 516 | SI (TC50/IC50) [2]: 6.8
Cc1ccc(/C=N/Nc2nc(-c3ccccc3Cl)cs2)c(C(=O)O)c1 [Compound 9-1] | 32 µM | 39 µM | 135 µM | 42 µM | 3.36 µM | 100 | 320 nM | 3000 nM | 360 nM | 330 | 127 | 330 nM | 125.8 | 310 nM | 330 nM | 670 nM | 653 | 270 nM | 9 | 327 | SI (TC50/IC50) [2]: 40
O=C(O)c1cc(F)c(F)cc1/C=N/Nc1nc(-c2ccccc2Cl)cs1 [Compound 23-1] | 36 µM | 78 µM | 101 µM | 76 µM | 5.67 µM | 124 | 290 nM | 2000 nM | 670 nM | 477 | 262 | 290 nM | 200 | 390 nM | 370 nM | 670 nM | 300 | 260 nM | 5.4 | 152 | SI (TC50/IC50) [2]: 19; CC50 (in vitro [8]): 124 µM
CN(/N=C/c1ccccc1C(=O)O)c1nc(-c2ccccc2Cl)cs1 [Compound 1, (E)-4-(2-chlorophenyl)-2-[1-methyl-2-(2-carboxybenzylidene)hydrazino]thiazole] | 12 µM | 16 µM | 31 µM | 13 µM | 4.34 µM | 80 | 150 nM | 1000 nM | 420 nM | 125 | 130 | 100 nM | 145 | 110 nM | 140 nM | 2320 nM | 83 | 120 nM | 7.1 | 11 | 
CN(/N=C/c1ccc(F)cc1C(=O)O)c1nc(-c2ccccc2Cl)cs1 [Compound 10, (E)-4-(2-chlorophenyl)-2-[1-methyl-2-(2-carboxyl-4-fluorobenzylidene)hydrazino]thiazole] | 13 µM | 23 µM | 19 µM | 21 µM | 5.21 µM | 216 | 60 nM | 500 nM | 210 nM | 320 | 350 | 60 nM | 460 | 50 nM | 50 nM | 280 nM | 233 | 100 nM | 10 | 161 | SI (TC50/IC50) [2]: 3.6; CC50 (in vitro [8]): 32 µM; inhibitory effects on human hand-foot-mouth virus EV71 ([13]; FIG. 2): a certain inhibitory effects
